Laboratory results taken from PMC5971037, “Synthesis and evaluation of antimicrobial, antitubercular and anticancer activities of 2-(1-benzoyl-1H-benzo[d]imidazol-2-ylthio)-N-substituted acetamides” (Chemistry Central Journal, 2018).
Values after ≈ are worked out from the molar mass of the structure shown.

Legend:
B. cereus [1] = experiment: Tube dilution MIC; conditions: Bacillus cereus, 24 h, read-out: MIC B. cereus
S. aureus [2] = experiment: Tube dilution MIC; conditions: Staphylococcus aureus, 24 h, read-out: MIC S. aureus
B. subtilis [3] = experiment: Tube dilution MIC; conditions: Bacillus subtilis, 24 h, read-out: MIC B. subtilis
[4] = tested on: MCF7 (human breast cancer) cell line; experiment: Sulforhodamine-B (SRB) cytotoxicity assay; format: cell-based; conditions: SRB assay, MCF7 cell line, read-out: IC50 MCF7
E. coli [5] = experiment: Tube dilution MIC; conditions: Escherichia coli, 24 h, read-out: MIC E. coli
S. aureus [6] = experiment: MBC by subculturing; format: cell-based; conditions: Staphylococcus aureus
Protocol: (§1) The minimum bactericidal concentration (MBC) and minimum fungicidal concentration (MFC) of the synthesized benzimidazole derivatives was determined by subculturing 100 µl of culture from each tube that remained clear in MIC determination onto sterilized petri-plates containing fresh agar medium. The petri-plates were incubated and analyzed for microbial growth visually.

E. coli [7] = experiment: MBC by subculturing; format: cell-based; conditions: Escherichia coli
Protocol: as §1

S. typhi [8] = experiment: MBC by subculturing; format: cell-based; conditions: Salmonella enterica, read-out: MBC S. typhi
Protocol: as §1

B. cereus [9] = experiment: MBC by subculturing; format: cell-based; conditions: Bacillus cereus; read-out: MBC B. cereus
Protocol: as §1

B. subtilis [10] = experiment: MBC by subculturing; format: cell-based; conditions: Bacillus subtilis; read-out: MBC B. subtilis
Protocol: as §1

A. niger [11] = experiment: MFC by subculturing; format: cell-based; conditions: Aspergillus niger; read-out: MFC A. niger
Protocol: as §1

C. albicans [12] = experiment: MFC by subculturing; format: cell-based; conditions: Candida albicans; read-out: MFC C. albicans
Protocol: as §1

M. tuberculosis H37Rv [13] = experiment: Minimum lethal concentration (MLC); format: cell-based; conditions: Mycobacterium tuberculosis, NA = no activity, read-out: MLC against M. tuberculosis H37Rv
[14] = tested on: M. tuberculosis H37Rv (NCFT/TB/537); experiment: Well diffusion susceptibility test (zone of inhibition); format: cell-based; conditions: Mycobacterium tuberculosis, 672 h, read-out: Diameter of zone of inhibition against H37Rv (NCFT/TB/537), wells of 8 mm, 50 µg/ml test compound, 25 µg/ml standard drug, 4 weeks, NA = no activity
A. niger [15] = experiment: microbe, parasite or virus in culture; conditions: Aspergillus niger, 168 h, read-out: MIC A. niger
C. albicans [16] = experiment: microbe, parasite or virus in culture; conditions: Candida albicans, 48 h, read-out: MIC C. albicans
[17] = tested on: HCT116 (human colorectal) cell line; experiment: Sulforhodamine-B (SRB) cytotoxicity assay; format: cell-based; conditions: HCT-116, SRB assay, HCT116 cell line, read-out: IC50 HCT116
S. typhi [18] = experiment: Tube dilution MIC; format: cell-based; conditions: Salmonella enterica, 24 h, read-out: MIC S. typhi
M. tuberculosis H37Rv [19] = experiment: MIC by microplate alamar blue assay; format: cell-based; conditions: Mycobacterium tuberculosis, NA = no activity, read-out: MIC against M. tuberculosis H37Rv

| SMILES | MIC (B. cereus [1]) | MIC (S. aureus [2]) | MIC (B. subtilis [3]) | IC50 [4] | MIC (E. coli [5]) | MBC (S. aureus [6]) | MBC (E. coli [7]) | MBC (S. typhi [8]) | MBC (B. cereus [9]) | MBC (B. subtilis [10]) | MFC (A. niger [11]) | MFC (C. albicans [12]) | MBC (M. tuberculosis H37Rv [13]) | zone of inhibition at 50 µg/mL [14] | MIC (A. niger [15]) | MIC (C. albicans [16]) | IC50 [17] | MIC (S. typhi [18]) | MIC (M. tuberculosis H37Rv [19]) |
| --- | --- | --- | --- | --- | --- | --- | --- | --- | --- | --- | --- | --- | --- | --- | --- | --- | --- | --- | --- |
| Cc1ccccc1NC(=O)CSc1nc2ccccc2n1C(=O)c1ccccc1 [Compound 16, 2-(1-Benzoyl-1H-benzo[d]imidazol-2-ylthio)-N–o-tolylacetamide] | 31 µM (≈ 12.4 µg/mL) | 31 µM (≈ 12.4 µg/mL) | 31 µM (≈ 12.4 µg/mL) | 124 µM | 31 µM (≈ 12.4 µg/mL) | 50 µg/mL (≈ 125 µM) | > 50 µg/mL | 50 µg/mL (≈ 125 µM) | > 50 µg/mL | 50 µg/mL (≈ 125 µM) | > 50 µg/mL | 25 µg/mL (≈ 62.3 µM) | 28 µg/mL (≈ 69.7 µM) | 10 mm | 31 µM (≈ 12.4 µg/mL) | 16 µM (≈ 6.42 µg/mL) | 87.2 µM | 31 µM (≈ 12.4 µg/mL) | 15 µg/mL (≈ 37.4 µM) |
| O=c1[nH]cc(F)c(=O)[nH]1 [Compound 5-FU, 5-fluorouracil, reference compound] |  |  |  |  |  |  |  |  |  |  |  |  |  |  |  |  | 12.5 µM |  |  |
| OC(Cn1cncn1)(Cn1cncn1)c1ccc(F)cc1F [Fluconazole, reference compound] |  |  |  |  |  |  |  |  |  |  |  |  |  |  | 470 µM (≈ 144 µg/mL) | 470 µM (≈ 144 µg/mL) |  |  |  |
| Cc1ccc(NC(=O)CSc2nc3ccccc3n2C(=O)c2ccccc2)c(C)c1 [Compound 20, 2-(1-Benzoyl-1H-benzo[d]imidazol-2-ylthio)-N-(2,4-dimethylphenyl)acetamide] | 30 µM (≈ 12.5 µg/mL) | 30 µM (≈ 12.5 µg/mL) | 30 µM (≈ 12.5 µg/mL) |  | 30 µM (≈ 12.5 µg/mL) | 50 µg/mL (≈ 120 µM) | > 50 µg/mL | 50 µg/mL (≈ 120 µM) | > 50 µg/mL | 50 µg/mL (≈ 120 µM) | > 50 µg/mL | 25 µg/mL (≈ 60.2 µM) | 28 µg/mL (≈ 67.4 µM) | 10 mm | 30 µM (≈ 12.5 µg/mL) | 15 µM (≈ 6.23 µg/mL) |  | 30 µM (≈ 12.5 µg/mL) | 15 µg/mL (≈ 36.1 µM) |
| [H]/N=C(/N)N[C@H]1[C@H](O)[C@@H](O)[C@H](O[C@@H]2O[C@@H](C)[C@](O)(C=O)[C@H]2O[C@@H]2O[C@@H](CO)[C@H](O)[C@@H](O)[C@@H]2NC)[C@@H](N/C(N)=N\[H])[C@@H]1O [Streptomycin, reference compound] |  |  |  |  |  |  |  |  |  |  |  |  | 25 µg/mL (≈ 43 µM) | > 20 mm |  |  |  |  | 12.5 µg/mL (≈ 21.5 µM) |
| Cc1cccc(NC(=O)CSc2nc3ccccc3n2C(=O)c2ccccc2)c1 [Compound 19, 2-(1-Benzoyl-1H-benzo[d]imidazol-2-ylthio)-N-m-tolylacetamide] | 31 µM (≈ 12.4 µg/mL) | 31 µM (≈ 12.4 µg/mL) | 31 µM (≈ 12.4 µg/mL) |  | 31 µM (≈ 12.4 µg/mL) | 50 µg/mL (≈ 125 µM) | > 50 µg/mL | > 50 µg/mL | > 50 µg/mL | 50 µg/mL (≈ 125 µM) | > 50 µg/mL | 50 µg/mL (≈ 125 µM) |  |  | 31 µM (≈ 12.4 µg/mL) | 16 µM (≈ 6.42 µg/mL) |  | 31 µM (≈ 12.4 µg/mL) |  |
| CC1=C(C(=O)O)N2C(=O)[C@@H](NC(=O)[C@H](N)c3ccc(O)cc3)[C@H]2SC1 [Cefadroxil, reference compound] | 370 µM (≈ 134 µg/mL) | 370 µM (≈ 134 µg/mL) | 370 µM (≈ 134 µg/mL) |  | 370 µM (≈ 134 µg/mL) |  |  |  |  |  |  |  |  |  |  |  |  | 370 µM (≈ 134 µg/mL) |  |
